In the supplement of paper PMC12463676, “Small-molecule dissolution of stress granules by redox modulation benefits ALS models” (Nature Chemical Biology, 2025) one finds thermal stability z-score data, which are given here for 27 targets.

Compound in assay [1]: NC(=O)CCCCC1CCSS1 [lipoamide]
As to the kind of experiment: thermal stability z-score vs DMSO; higher = more thermally stabilized by treatment. The note with it: HeLa, lipoamide concentration 100 µM. As to the method: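 Cellular thermal proteome profiling in HeLa cells. Cells were treated with 100 µM lipoamide for 1 h, with or without 1 mM arsenate for a further 1 h, then heated to ten temperatures (37-66.3 °C), and soluble protein was quantified by TMT mass spectrometry relative to 0.1% DMSO controls. The thermal stability score (sum of log2 fold changes minus the abundance score) was transformed to a z-score; mean of n = 3 experiments.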

Compound in assay [2]: O=[As]([O-])(O)O.[K+] [potassium arsenate]
Described as above. The note with it: HeLa; arsenate concentration 1 mM. As to the method: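 Cellular thermal proteome profiling in HeLa cells treated with 1 mM arsenate for 1 h (DMSO pretreatment), heated to ten temperatures (37-66.3 °C). Soluble protein was quantified by TMT mass spectrometry relative to DMSO controls; the thermal stability score was transformed to a z-score; mean of n = 3 experiments.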

Setting [3] is: arsenate co-treatment: 1 mM arsenate 1 h.
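Also: each temperature applied for 3 min, abundance score taken as mean log2 fold change at the two lowest temperatures, z-score obtained by mean subtraction and division by SD.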

Sequence of UniProt P27448 (P27448 whole entry, looked up): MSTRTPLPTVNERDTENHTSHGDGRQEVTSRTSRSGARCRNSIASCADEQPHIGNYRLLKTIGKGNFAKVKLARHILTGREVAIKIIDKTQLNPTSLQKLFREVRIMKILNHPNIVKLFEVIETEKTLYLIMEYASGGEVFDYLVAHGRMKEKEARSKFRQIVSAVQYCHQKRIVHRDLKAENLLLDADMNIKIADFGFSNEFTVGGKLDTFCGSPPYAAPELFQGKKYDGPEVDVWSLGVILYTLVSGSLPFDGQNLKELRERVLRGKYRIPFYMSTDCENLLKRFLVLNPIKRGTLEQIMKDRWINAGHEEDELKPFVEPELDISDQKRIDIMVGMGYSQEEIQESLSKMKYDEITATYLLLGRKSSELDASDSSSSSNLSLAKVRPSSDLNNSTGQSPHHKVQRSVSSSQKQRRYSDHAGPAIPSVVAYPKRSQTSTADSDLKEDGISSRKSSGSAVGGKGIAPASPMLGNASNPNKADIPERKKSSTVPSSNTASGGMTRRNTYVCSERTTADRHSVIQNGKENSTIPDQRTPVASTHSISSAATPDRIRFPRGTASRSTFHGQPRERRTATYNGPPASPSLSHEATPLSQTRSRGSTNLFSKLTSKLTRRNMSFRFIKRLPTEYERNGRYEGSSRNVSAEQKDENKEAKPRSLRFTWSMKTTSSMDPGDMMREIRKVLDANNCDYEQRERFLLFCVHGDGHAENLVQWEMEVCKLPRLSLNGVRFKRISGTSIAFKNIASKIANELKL
Sequence of UniProt Q9NXA8 (Q9NXA8 whole entry, looked up): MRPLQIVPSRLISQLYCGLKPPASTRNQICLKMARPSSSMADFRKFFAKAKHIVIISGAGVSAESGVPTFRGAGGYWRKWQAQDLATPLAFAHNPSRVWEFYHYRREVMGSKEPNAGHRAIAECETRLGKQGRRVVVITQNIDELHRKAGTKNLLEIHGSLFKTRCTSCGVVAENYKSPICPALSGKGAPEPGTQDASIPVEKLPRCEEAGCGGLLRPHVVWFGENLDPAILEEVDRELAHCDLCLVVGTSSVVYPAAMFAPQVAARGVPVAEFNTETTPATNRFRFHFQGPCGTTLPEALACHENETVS
Sequence of UniProt P49959 (P49959 whole entry): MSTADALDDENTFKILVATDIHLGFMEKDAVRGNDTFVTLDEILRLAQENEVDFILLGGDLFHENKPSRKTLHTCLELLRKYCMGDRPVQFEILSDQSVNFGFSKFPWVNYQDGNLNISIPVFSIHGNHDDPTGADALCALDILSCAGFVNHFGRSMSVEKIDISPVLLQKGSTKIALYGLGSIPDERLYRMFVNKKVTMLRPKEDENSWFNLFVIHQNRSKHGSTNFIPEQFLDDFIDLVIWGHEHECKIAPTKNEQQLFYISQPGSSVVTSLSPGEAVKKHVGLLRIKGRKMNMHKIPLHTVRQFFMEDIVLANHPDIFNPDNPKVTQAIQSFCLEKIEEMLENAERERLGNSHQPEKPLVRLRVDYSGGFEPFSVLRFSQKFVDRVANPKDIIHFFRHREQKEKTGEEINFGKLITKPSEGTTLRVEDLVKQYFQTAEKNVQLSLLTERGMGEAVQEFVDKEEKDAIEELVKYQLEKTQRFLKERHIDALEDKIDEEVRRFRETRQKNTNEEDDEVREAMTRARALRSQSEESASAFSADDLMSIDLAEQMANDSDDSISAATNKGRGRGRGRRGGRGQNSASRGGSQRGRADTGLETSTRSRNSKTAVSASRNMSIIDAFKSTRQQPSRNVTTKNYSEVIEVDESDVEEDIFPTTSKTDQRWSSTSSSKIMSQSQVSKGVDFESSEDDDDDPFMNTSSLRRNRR
Sequence of UniProt Q86YM7 (Q86YM7 whole entry): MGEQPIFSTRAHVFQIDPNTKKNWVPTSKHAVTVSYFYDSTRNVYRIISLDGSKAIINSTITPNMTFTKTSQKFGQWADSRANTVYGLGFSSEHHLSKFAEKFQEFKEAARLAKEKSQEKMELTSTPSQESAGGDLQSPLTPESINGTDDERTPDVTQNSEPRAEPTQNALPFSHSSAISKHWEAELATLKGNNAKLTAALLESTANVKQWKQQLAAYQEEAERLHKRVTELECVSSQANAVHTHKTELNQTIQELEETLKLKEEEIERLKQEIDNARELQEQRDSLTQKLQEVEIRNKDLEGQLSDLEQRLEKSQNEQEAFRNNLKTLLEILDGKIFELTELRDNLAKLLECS
Sequence of UniProt Q7Z4H7 (Q7Z4H7 whole entry): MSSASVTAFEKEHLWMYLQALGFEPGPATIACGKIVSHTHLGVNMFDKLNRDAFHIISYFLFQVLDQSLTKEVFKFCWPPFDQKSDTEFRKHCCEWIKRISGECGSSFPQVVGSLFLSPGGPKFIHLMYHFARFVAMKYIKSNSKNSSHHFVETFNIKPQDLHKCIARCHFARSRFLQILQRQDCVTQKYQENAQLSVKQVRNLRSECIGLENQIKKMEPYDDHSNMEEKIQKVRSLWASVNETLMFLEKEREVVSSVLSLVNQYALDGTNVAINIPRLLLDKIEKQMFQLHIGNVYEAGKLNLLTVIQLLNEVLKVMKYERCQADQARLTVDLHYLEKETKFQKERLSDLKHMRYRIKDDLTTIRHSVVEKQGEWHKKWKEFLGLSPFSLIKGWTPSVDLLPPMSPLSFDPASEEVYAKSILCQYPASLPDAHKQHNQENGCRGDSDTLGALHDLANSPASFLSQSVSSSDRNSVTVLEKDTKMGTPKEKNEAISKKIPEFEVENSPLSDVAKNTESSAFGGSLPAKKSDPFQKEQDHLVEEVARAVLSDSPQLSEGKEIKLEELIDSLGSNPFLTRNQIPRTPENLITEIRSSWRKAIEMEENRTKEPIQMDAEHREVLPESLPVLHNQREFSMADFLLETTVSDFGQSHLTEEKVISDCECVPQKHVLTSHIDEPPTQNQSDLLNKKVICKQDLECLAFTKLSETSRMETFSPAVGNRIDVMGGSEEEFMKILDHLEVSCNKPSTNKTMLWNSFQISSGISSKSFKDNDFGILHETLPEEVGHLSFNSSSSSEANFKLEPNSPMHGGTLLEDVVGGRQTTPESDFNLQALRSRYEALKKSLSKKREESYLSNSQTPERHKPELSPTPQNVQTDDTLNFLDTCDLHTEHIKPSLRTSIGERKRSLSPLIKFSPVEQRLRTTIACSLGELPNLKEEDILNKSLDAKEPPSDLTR
Sequence of UniProt P06241 (P06241 whole entry, looked up): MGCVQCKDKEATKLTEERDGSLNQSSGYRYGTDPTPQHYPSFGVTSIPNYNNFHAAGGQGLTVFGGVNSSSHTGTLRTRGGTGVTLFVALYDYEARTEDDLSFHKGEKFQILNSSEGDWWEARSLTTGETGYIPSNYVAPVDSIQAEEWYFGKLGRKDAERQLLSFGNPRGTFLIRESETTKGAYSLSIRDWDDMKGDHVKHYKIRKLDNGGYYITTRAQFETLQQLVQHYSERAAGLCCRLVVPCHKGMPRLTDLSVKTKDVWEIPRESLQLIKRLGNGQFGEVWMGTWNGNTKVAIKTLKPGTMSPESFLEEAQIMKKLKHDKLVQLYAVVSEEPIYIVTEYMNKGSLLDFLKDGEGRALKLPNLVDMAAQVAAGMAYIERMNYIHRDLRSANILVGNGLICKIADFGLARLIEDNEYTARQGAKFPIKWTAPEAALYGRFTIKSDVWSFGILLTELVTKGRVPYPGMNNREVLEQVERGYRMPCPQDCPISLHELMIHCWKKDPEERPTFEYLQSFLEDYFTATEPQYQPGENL
Sequence of UniProt P26572 (P26572 whole entry): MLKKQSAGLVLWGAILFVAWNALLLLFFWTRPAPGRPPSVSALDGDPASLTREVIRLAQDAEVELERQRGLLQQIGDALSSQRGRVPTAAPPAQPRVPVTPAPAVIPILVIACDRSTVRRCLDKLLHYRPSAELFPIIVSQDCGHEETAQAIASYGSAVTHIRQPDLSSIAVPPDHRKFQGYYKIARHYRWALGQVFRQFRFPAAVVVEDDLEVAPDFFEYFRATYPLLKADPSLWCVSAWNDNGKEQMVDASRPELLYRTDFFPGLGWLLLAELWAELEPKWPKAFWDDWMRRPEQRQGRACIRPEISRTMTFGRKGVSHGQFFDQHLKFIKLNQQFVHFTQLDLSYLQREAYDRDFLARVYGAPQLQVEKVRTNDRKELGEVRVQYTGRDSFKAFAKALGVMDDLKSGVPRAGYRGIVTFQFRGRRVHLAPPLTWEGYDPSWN
Sequence of UniProt Q9NUY8 (Q9NUY8 whole entry): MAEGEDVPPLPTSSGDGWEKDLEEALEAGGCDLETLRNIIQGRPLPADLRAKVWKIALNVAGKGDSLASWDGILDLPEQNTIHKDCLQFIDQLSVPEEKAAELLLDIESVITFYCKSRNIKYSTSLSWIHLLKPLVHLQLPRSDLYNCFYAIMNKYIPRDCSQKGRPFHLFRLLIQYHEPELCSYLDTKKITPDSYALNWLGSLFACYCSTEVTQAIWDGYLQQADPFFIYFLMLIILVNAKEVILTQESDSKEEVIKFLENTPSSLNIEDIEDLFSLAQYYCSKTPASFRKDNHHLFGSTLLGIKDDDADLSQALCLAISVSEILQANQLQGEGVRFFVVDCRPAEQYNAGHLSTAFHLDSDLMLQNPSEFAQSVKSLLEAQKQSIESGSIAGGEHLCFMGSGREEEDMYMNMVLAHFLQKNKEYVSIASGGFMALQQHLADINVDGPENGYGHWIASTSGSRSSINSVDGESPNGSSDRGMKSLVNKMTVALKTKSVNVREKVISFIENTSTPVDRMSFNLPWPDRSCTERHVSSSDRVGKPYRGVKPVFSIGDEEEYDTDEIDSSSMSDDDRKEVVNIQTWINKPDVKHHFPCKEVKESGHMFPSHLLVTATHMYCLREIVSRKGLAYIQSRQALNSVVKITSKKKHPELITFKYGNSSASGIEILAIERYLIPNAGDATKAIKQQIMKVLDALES
Sequence of UniProt Q15631 (Q15631 whole entry): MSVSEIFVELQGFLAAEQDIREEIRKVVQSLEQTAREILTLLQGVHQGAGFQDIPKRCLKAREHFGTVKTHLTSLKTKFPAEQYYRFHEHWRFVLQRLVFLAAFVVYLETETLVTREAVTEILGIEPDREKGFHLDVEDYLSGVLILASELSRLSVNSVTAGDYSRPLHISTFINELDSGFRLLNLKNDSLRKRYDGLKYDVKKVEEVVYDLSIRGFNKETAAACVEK

In the case of ARFGEF2 (UniProt Q9Y6D5), the figures for the thermal stability z-score in assay [1] (setting [3]), in assay [1] (arsenate co-treatment: none) and in assay [2] were -0.376, -0.0733 and 0.0926, respectively.
For GSK3A (UniProt P49840), in that order: -0.401, -0.28 and -0.881.
In the same order, the values of TSN (UniProt Q15631) are 1.41, 1.61 and -0.161.
In the same order, the values of MARK3 (UniProt P27448) are -0.0834, -0.0843 and -0.0953.
In the case of MRPS22 (UniProt P82650), the thermal stability z-score is -0.329 in assay [1] (setting [3]), 0.295 in assay [1] (arsenate co-treatment: none) and -0.109 in assay [2].
For HSP90AA4P (UniProt Q58FG1), the thermal stability z-score in assay [1] (setting [3]) was -1.84; in assay [1] (arsenate co-treatment: none), -1.53; in assay [2] it was -2.39.
For MSN (UniProt P26038), in that order: 0.727, 0.377 and -0.891.
Take MRPS11 (UniProt P82912): the results for the thermal stability z-score in assay [1] (setting [3]), in assay [1] (arsenate co-treatment: none) and in assay [2] were 0.302, -0.354 and 0.34, respectively.
In the same order, the values of AKIRIN2 (UniProt Q53H80) are 0.0163, -0.00376 and 0.307.
In the same order, the values of HOMER1 (UniProt Q86YM7) are 0.64, 0.353 and 1.54.
In the same order, the values of PCBD1 (UniProt P61457) are 0.499, 0.492 and 0.213.
As to PWP1 (UniProt Q13610), the thermal stability z-score in assay [1] (setting [3]) is -0.0751; in assay [1] (arsenate co-treatment: none), -0.259; in assay [2], -2.52.
In the same order, the values of TRRAP (UniProt Q9Y4A5) are 0.918, 0.759 and -1.16.
In the same order, the values of TNIP1 (UniProt Q15025) are -0.261, -0.828 and -0.0487.
For NAMPT (UniProt P43490), in that order: 0.551, 0.0412 and -0.494.
Turning to HAUS6 (UniProt Q7Z4H7), the thermal stability z-score in assay [1] (setting [3]) was found to be 0.0315; in assay [1] (arsenate co-treatment: none), 0.263; in assay [2], 0.528.
In the same order, the values of TBC1D23 (UniProt Q9NUY8) are -0.408, -0.264 and 0.407.
For SIRT1 (UniProt Q96EB6), in that order: -0.368, -0.379 and -0.922.
For SIRT5 (UniProt Q9NXA8), in that order: -0.814, -1.26 and -1.02.
For the target FYN (UniProt P06241), the thermal stability z-score was 0.0671 in assay [1] (setting [3]), -0.0839 in assay [1] (arsenate co-treatment: none) and -1.04 in assay [2].
Consider MBD2 (UniProt Q9UBB5), for which the thermal stability z-score in assay [1] (setting [3]) is 0.0418; in assay [1] (arsenate co-treatment: none), 0.0688; in assay [2], -0.294.
For FAM105A (UniProt Q9NUU6), in that order: -0.00141, -0.0135 and 0.337.
For MRE11A (UniProt P49959), in that order: 0.729, 0.164 and -0.619.
As for PHB (UniProt P35232), the values for the thermal stability z-score in assay [1] (setting [3]), in assay [1] (arsenate co-treatment: none) and in assay [2] were 0.394, 0.55 and 0.222, respectively.
In the case of MGAT1 (UniProt P26572), the thermal stability z-score was -0.313 in assay [1] (setting [3]), -0.685 in assay [1] (arsenate co-treatment: none) and -0.0516 in assay [2].
In the same order, the values of WDR82 (UniProt Q6UXN9) are 0.88, -0.211 and -0.75.
In the same order, the values of MAD2L2 (UniProt Q9UI95) are -0.137, 0.037 and -0.211.
